Patent US9809623B2, “α4β7 peptide monomer and dimer antagonists” (Protagonist Therapeutics, Inc., priority 2014, dated 2017)
pIC50: −log10 of the molar value. Numbered stars: 1 amine (or outer) side, 2 acyl side, 3 side chain; on linkers, the order of the positions; unused ones are H or OH. Bridge positions count the residues as written; N and C are the ends. Square brackets hold non-standard residues; d marks the D form. Peptide text beside a SMILES is read from it. I, II: the chains in the order shown. Phe(4-tBu) = CC(C)(C)c1ccc(C[C@H](N)C(=O)O)cc1; 1Nal = N[C@@H](Cc1cccc2ccccc12)C(=O)O; 2Nal = N[C@@H](Cc1ccc2ccccc2c1)C(=O)O; Diglycolyl = O=C(COCC(=O)[*:2])[*:1]; NMeR = CN[C@@H](CCCNC(=N)N)C(=O)O; Tic = O=C(O)[C@@H]1Cc2ccccc2CN1; β3hE = N[C@@H](CCC(=O)O)CC(=O)O; Pen = CC(C)(S)[C@H](N)C(=O)O

Target: α4β7 (Homo sapiens, UniProt P13612+P26010)
Assay: α4β7-MAdCAM Cell Adhesion Assay (RPMI 8866 human cells)
Format: cell-based
Parameters: host or cells: RPMI 8866 human B lymphoblastoid cells
Details: Table 3-B, Potency (α4β7); range classes; read-out: α4β7 cell (Hu) IC50
How it was run: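 Washed RPMI 8866 cells (200,000/well) in DMEM with 0.1% BSA, 10 mM HEPES pH 7, 1 mM MnCl2 adhered to rh MAdCAM-1/Fc-coated wells with serially diluted peptides, 30-45 min at 37 °C. After three washes, bound cells quantified by MTT, A570, cell-free background subtracted for dose response.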

α4β7, sequence (P13612 34-1032): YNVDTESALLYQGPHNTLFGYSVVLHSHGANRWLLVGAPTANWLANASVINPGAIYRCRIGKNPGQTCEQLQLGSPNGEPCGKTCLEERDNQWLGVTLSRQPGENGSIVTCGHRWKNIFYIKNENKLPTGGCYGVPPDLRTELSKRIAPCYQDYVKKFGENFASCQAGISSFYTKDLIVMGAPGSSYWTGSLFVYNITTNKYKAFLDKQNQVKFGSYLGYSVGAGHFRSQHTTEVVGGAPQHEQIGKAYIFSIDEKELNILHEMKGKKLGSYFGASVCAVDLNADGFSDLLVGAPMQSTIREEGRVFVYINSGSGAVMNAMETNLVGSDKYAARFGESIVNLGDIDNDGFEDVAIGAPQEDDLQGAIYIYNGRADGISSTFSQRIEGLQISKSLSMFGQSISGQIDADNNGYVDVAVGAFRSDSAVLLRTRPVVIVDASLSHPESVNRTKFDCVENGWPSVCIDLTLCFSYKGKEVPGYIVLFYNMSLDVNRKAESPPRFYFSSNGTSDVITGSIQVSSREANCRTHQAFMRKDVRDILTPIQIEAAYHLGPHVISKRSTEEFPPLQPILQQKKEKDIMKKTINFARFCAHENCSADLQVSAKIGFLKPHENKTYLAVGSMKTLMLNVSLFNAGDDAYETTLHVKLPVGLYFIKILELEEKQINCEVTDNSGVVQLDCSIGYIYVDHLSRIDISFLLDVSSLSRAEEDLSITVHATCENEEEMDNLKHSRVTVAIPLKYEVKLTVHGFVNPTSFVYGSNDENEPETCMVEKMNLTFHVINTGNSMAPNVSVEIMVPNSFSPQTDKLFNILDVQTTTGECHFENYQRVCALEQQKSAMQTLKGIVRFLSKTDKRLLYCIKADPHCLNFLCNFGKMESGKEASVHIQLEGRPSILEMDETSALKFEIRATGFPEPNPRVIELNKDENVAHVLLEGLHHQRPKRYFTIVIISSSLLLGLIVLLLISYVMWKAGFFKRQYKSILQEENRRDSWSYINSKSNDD
α4β7, sequence (P26010 20-798): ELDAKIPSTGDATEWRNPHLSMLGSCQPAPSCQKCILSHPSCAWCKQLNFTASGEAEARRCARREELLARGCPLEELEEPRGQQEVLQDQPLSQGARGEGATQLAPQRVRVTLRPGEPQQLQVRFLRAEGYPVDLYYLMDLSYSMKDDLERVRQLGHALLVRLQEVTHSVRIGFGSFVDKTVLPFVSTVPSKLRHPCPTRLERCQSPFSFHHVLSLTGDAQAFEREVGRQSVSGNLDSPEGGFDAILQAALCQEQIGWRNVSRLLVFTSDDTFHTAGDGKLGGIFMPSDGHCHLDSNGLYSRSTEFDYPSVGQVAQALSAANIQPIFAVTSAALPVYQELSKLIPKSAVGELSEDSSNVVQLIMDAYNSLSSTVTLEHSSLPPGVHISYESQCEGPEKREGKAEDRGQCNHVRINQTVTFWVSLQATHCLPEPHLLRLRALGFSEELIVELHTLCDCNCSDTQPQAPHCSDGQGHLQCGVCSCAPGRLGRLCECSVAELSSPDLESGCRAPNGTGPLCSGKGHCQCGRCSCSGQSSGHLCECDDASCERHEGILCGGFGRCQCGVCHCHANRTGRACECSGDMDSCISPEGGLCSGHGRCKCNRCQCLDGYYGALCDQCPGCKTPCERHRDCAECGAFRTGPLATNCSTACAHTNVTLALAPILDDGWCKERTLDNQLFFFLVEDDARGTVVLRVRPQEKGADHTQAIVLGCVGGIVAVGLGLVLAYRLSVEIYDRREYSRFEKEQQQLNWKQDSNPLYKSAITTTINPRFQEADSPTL

Work on `CC(=O)N[C@@H]1C(=O)N(C)[C@@H](CCCNC(=N)N)C(=O)N[C@@H](CO)C(=O)N[C@@H](CC(=O)O)C(=O)N[C@@H]([C@@H](C)O)C(=O)N[C@@H](CC(C)C)C(=O)N[C@H](C(=O)N[C@@H](Cc2ccc3ccccc3c2)C(=O)N2Cc3ccccc3C[C@H]2C(=O)N[C@H](CCCCNC(=O)COCC(=O)NCCCC[C@@H](NC(=O)[C@@H]2Cc3ccccc3CN2C(=O)[C@H](Cc2ccc3ccccc3c2)NC(=O)[C@H]2NC(=O)[C@H](CC(C)C)NC(=O)[C@H]([C@@H](C)O)NC(=O)[C@H](CC(=O)O)NC(=O)[C@H](CO)NC(=O)[C@H](CCCNC(=N)N)N(C)C(=O)[C@@H](NC(C)=O)C(C)(C)SSC2(C)C)C(N)=O)C(N)=O)C(C)(C)SSC1(C)C` [compound 121] (I: Ac-[Pen][NMeR]SDTL[Pen][2Nal][Tic][dK]-NH2 / II: Ac-[Pen][NMeR]SDTL[Pen][2Nal][Tic][dK]-NH2; disulfide I:1-I:7, II:1-II:7; linker I:10-II:10 via Diglycolyl) yielded a pIC50 of 6.30 to 7.00.
`CC(=O)N[C@@H]1C(=O)N(C)[C@@H](CCCNC(=N)N)C(=O)N[C@@H](CO)C(=O)N[C@@H](CC(=O)O)C(=O)N[C@@H]([C@@H](C)O)C(=O)N[C@@H](CC(C)C)C(=O)N[C@H](C(=O)N[C@@H](Cc2ccc3ccccc3c2)C(=O)N[C@H](CC(C)C)C(=O)N[C@H](CCCCNC(=O)COCC(=O)NCCCC[C@@H](NC(=O)[C@@H](CC(C)C)NC(=O)[C@H](Cc2ccc3ccccc3c2)NC(=O)[C@H]2NC(=O)[C@H](CC(C)C)NC(=O)[C@H]([C@@H](C)O)NC(=O)[C@H](CC(=O)O)NC(=O)[C@H](CO)NC(=O)[C@H](CCCNC(=N)N)N(C)C(=O)[C@@H](NC(C)=O)C(C)(C)SSC2(C)C)C(N)=O)C(N)=O)C(C)(C)SSC1(C)C` [compound 119] (I: Ac-[Pen][NMeR]SDTL[Pen][2Nal][dL][dK]-NH2 / II: Ac-[Pen][NMeR]SDTL[Pen][2Nal][dL][dK]-NH2; disulfide I:1-I:7, II:1-II:7; linker I:10-II:10 via Diglycolyl) gave a pIC50 of 6.00 to 6.30.
Work on `CC(=O)N[C@@H]1C(=O)N(C)[C@@H](CCCNC(=N)N)C(=O)N[C@@H](CO)C(=O)N[C@@H](CC(=O)O)C(=O)N[C@@H]([C@@H](C)O)C(=O)N[C@@H](CC(C)C)C(=O)N[C@H](C(=O)N[C@@H](Cc2c[nH]cn2)C(=O)N[C@@H](CCC(=O)O)C(=O)N[C@H](CCCCNC(=O)COCC(=O)NCCCC[C@@H](NC(=O)[C@H](CCC(=O)O)NC(=O)[C@H](Cc2c[nH]cn2)NC(=O)[C@H]2NC(=O)[C@H](CC(C)C)NC(=O)[C@H]([C@@H](C)O)NC(=O)[C@H](CC(=O)O)NC(=O)[C@H](CO)NC(=O)[C@H](CCCNC(=N)N)N(C)C(=O)[C@@H](NC(C)=O)C(C)(C)SSC2(C)C)C(N)=O)C(N)=O)C(C)(C)SSC1(C)C` [compound 25] (I: Ac-[Pen][NMeR]SDTL[Pen]HE[dK]-NH2 / II: Ac-[Pen][NMeR]SDTL[Pen]HE[dK]-NH2; disulfide I:1-I:7, II:1-II:7; linker I:10-II:10 via Diglycolyl) yielded a pIC50 of 7.60 to 8.00.
`CC(=O)N[C@@H]1C(=O)N(C)[C@@H](CCCNC(=N)N)C(=O)N[C@@H](CO)C(=O)N[C@@H](CC(=O)O)C(=O)N[C@@H]([C@@H](C)O)C(=O)N[C@@H](CC(C)C)C(=O)N[C@H](C(=O)N[C@@H](Cc2cccc3ccccc23)C(=O)N[C@H](CC(C)C)C(=O)N[C@H](CCCCNC(=O)COCC(=O)NCCCC[C@@H](NC(=O)[C@@H](CC(C)C)NC(=O)[C@H](Cc2cccc3ccccc23)NC(=O)[C@H]2NC(=O)[C@H](CC(C)C)NC(=O)[C@H]([C@@H](C)O)NC(=O)[C@H](CC(=O)O)NC(=O)[C@H](CO)NC(=O)[C@H](CCCNC(=N)N)N(C)C(=O)[C@@H](NC(C)=O)C(C)(C)SSC2(C)C)C(N)=O)C(N)=O)C(C)(C)SSC1(C)C` [compound 113] (I: Ac-[Pen][NMeR]SDTL[Pen][1Nal][dL][dK]-NH2 / II: Ac-[Pen][NMeR]SDTL[Pen][1Nal][dL][dK]-NH2; disulfide I:1-I:7, II:1-II:7; linker I:10-II:10 via Diglycolyl) showed a pIC50 of 6.00 to 6.30.
`CC[C@H](C)[C@@H]1NC(=O)[C@H](CCC(N)=O)NC(=O)[C@H](CO)NC(=O)[C@H](CCCNC(=N)N)N(C)C(=O)[C@@H](NC(C)=O)C(C)(C)SSC(C)(C)[C@@H](C(=O)N[C@@H](Cc2ccc(C(C)(C)C)cc2)C(=O)N[C@@H](CCC(=O)O)CC(=O)N[C@H](CCCCNC(=O)COCC(=O)NCCCC[C@@H](NC(=O)C[C@H](CCC(=O)O)NC(=O)[C@H](Cc2ccc(C(C)(C)C)cc2)NC(=O)[C@H]2NC(=O)[C@H](CCC(N)=O)NC(=O)[C@H]([C@@H](C)CC)NC(=O)[C@H](CCC(N)=O)NC(=O)[C@H](CO)NC(=O)[C@H](CCCNC(=N)N)N(C)C(=O)[C@@H](NC(C)=O)C(C)(C)SSC2(C)C)C(N)=O)C(N)=O)NC(=O)[C@H](CCC(N)=O)NC1=O` [compound 189] (I: Ac-[Pen][NMeR]SQIQ[Pen][Phe(4-tBu)][β3hE][dK]-NH2 / II: Ac-[Pen][NMeR]SQIQ[Pen][Phe(4-tBu)][β3hE][dK]-NH2; disulfide I:1-I:7, II:1-II:7; linker I:10-II:10 via Diglycolyl) showed a pIC50 of 4.00 to 5.00.
`CC[C@H](C)[C@@H]1NC(=O)[C@H](CCC(N)=O)NC(=O)[C@H](CO)NC(=O)[C@H](CCCNC(=N)N)N(C)C(=O)[C@@H](NC(C)=O)C(C)(C)SSC(C)(C)[C@@H](C(=O)N[C@@H](Cc2ccc(C(C)(C)C)cc2)C(=O)N[C@@H](CCC(=O)O)CC(=O)N[C@H](CCCCNC(=O)CN(CC(=O)NCCCC[C@@H](NC(=O)C[C@H](CCC(=O)O)NC(=O)[C@H](Cc2ccc(C(C)(C)C)cc2)NC(=O)[C@H]2NC(=O)[C@H](CCC(N)=O)NC(=O)[C@H]([C@@H](C)CC)NC(=O)[C@H](CCC(N)=O)NC(=O)[C@H](CO)NC(=O)[C@H](CCCNC(=N)N)N(C)C(=O)[C@@H](NC(C)=O)C(C)(C)SSC2(C)C)C(N)=O)C(=O)CCN)C(N)=O)NC(=O)[C@H](CCC(N)=O)NC1=O` [compound 190] gave a pIC50 of under 4.00.
In the case of `CC(=O)N[C@@H]1C(=O)N(C)[C@@H](CCCNC(=N)N)C(=O)N[C@@H](CO)C(=O)N[C@@H](CC(=O)O)C(=O)N[C@@H]([C@@H](C)O)C(=O)N[C@@H](CC(C)C)C(=O)N[C@H](C(=O)N[C@@H](Cc2c[nH]c3ccccc23)C(=O)N[C@H](CCCCNC(=O)COCC(=O)NCCCC[C@@H](NC(=O)[C@H](Cc2c[nH]c3ccccc23)NC(=O)[C@H]2NC(=O)[C@H](CC(C)C)NC(=O)[C@H]([C@@H](C)O)NC(=O)[C@H](CC(=O)O)NC(=O)[C@H](CO)NC(=O)[C@H](CCCNC(=N)N)N(C)C(=O)[C@@H](NC(C)=O)C(C)(C)SSC2(C)C)C(=O)O)C(=O)O)C(C)(C)SSC1(C)C` [compound 76] (I: Ac-[Pen][NMeR]SDTL[Pen]W[dK]-OH / II: Ac-[Pen][NMeR]SDTL[Pen]W[dK]-OH; disulfide I:1-I:7, II:1-II:7; linker I:9-II:9 via Diglycolyl), the pIC50 was 7.60 to 8.00.
